Experimental data taken from US20120029187A1, “HALOALKYLSULFONANILIDE DERIVATIVE” (Nissan Chemical Industries, Ltd., priority 2009, published 2012).

Columns and labels:
Assay type in all cases: in vivo
[1] = system: bulrush; experiment: Test Example 1: herbicidal effects in preemergence treatment under submerged conditions; conditions: dose 2.52 g/a
Outline: (§1)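 Scoring 0 (<5% mortality) to 5 (≥90%) was done three weeks after preemergence application to the water surface of submerged (4 cm) alluvial soil, doses given as g per are. Weeds were seeded and 2.5-leaf rice transplanted on the treatment day; greenhouse at 25–30 °C.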

[2] = system: ducksalad; experiment: as above; conditions: dose 2.52 g/a
Outline: as §1

[3] = system: barnyardgrass; experiment: as above; conditions: dose 2.52 g/a
Outline: as §1

[4] = system: bulrush; experiment: Test Example 2: herbicidal effects during the vegetation period under submerged conditions; conditions: treatment during the vegetation period under submerged conditions; dose 2.52 g/a
Outline: (§2)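 Barnyardgrass, bulrush and ducksalad were co-sown in alluvial soil flooded to 4 cm and grown in a greenhouse at 25 to 30° C. At the 1- or 2-leaf stage, water-diluted emulsifiable concentrates went onto the water surface at set doses (g/a). Herbicidal effect was scored three weeks later on a graded scale.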

[5] = system: ducksalad; experiment: as above; conditions: treatment during the vegetation period under submerged conditions; dose 2.52 g/a
Outline: as §2

[6] = system: barnyardgrass; experiment: as above; conditions: treatment during the vegetation period under submerged conditions; dose 2.52 g/a
Outline: as §2

[7] = system: common chickweed; experiment: Test Example 4: herbicidal effect in foliage treatment; conditions: dose 6.3 g/a, three weeks after application
Outline: (§3)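 Post-emergence foliar spray of water-diluted emulsifiable concentrate at predetermined doses (g per are), applied to plants 14 days after sowing in sterile diluvial soil (greenhouse, 25 to 30° C). Visual scale rating of effect taken 3 weeks later.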

[8] = system: velvetleaf; experiment: as above; conditions: dose 6.3 g/a, three weeks after application
Outline: as §3

[9] = system: common ragweed; experiment: as above; conditions: dose 6.3 g/a, three weeks after application
Outline: as §3

[10] = system: Italian ryegrass; experiment: as above; conditions: dose 6.3 g/a, three weeks after application
Outline: as §3

[11] = system: barnyardgrass; experiment: as above; conditions: dose 6.3 g/a, three weeks after application
Outline: as §3

[12] = system: giant foxtail; experiment: as above; conditions: dose 6.3 g/a, three weeks after application
Outline: as §3

[13] = system: large crabgrass; experiment: as above; conditions: dose 6.3 g/a, three weeks after application
Outline: as §3

[14] = system: water foxtail; experiment: as above; conditions: dose 6.3 g/a, three weeks after application
Outline: as §3

[15] = system: posumbu knotweed; experiment: as above; conditions: dose 6.3 g/a, three weeks after application
Outline: as §3

[16] = system: common lambsquater; experiment: as above; conditions: dose 6.3 g/a, three weeks after application
Outline: as §3

[17] = system: wild oat; experiment: as above; conditions: dose 6.3 g/a, three weeks after application
Outline: as §3

[18] = system: beadstraw; experiment: as above; conditions: dose 6.3 g/a, three weeks after application
Outline: as §3

[19] = system: redroot pigweed; experiment: as above; conditions: dose 6.3 g/a, three weeks after application
Outline: as §3

[20] = system: common chickweed; experiment: Test Example 3: herbicidal effects in soil treatment; conditions: dose 6.3 g/a
Outline: (§4)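 Seeds were sown in sterilized diluvial soil and covered with about 1.5 cm of soil. Compounds, formulated as emulsifiable concentrates and diluted with water, were sprayed evenly over the soil surface at set doses in g/a. Herbicidal effect was scored on a rating scale three weeks later.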

[21] = system: velvetleaf; experiment: as above; conditions: dose 6.3 g/a
Outline: as §4

[22] = system: common ragweed; experiment: as above; conditions: dose 6.3 g/a
Outline: as §4

[23] = system: Italian ryegrass; experiment: as above; conditions: dose 6.3 g/a
Outline: as §4

[24] = system: barnyardgrass; experiment: as above; conditions: dose 6.3 g/a
Outline: as §4

[25] = system: giant foxtail; experiment: as above; conditions: dose 6.3 g/a
Outline: as §4

[26] = system: large crabgrass; experiment: as above; conditions: dose 6.3 g/a
Outline: as §4

[27] = system: water foxtail; experiment: as above; conditions: dose 6.3 g/a
Outline: as §4

[28] = system: posumbu knotweed; experiment: as above; conditions: dose 6.3 g/a
Outline: as §4

[29] = system: common lambsquater; experiment: as above; conditions: dose 6.3 g/a
Outline: as §4

[30] = system: wild oat; experiment: as above; conditions: dose 6.3 g/a
Outline: as §4

[31] = system: redroot pigweed; experiment: as above; conditions: dose 6.3 g/a
Outline: as §4

[32] = system: transplanted rice; experiment: Test Example 1: preemergence treatment under submerged conditions, effect on crop; conditions: dose 2.52 g/a
Outline: as §1

Q: Which results are given for `CC(C)COC(=O)N(c1ccccc1CN1CCOCC1=O)S(=O)(=O)C(F)(F)F` [Compound I-3]?
A: B: bulrush, herbicidal effect (evaluation scale 0-5) [1]: 5 (mortality of 90% or above (nearly complete death)); C: ducksalad, herbicidal effect (evaluation scale 0-5) [2]: 5 (mortality of 90% or above (nearly complete death)); A: barnyardgrass, herbicidal effect (evaluation scale 0-5) [3]: 5 (mortality of 90% or above (nearly complete death)); B: bulrush, herbicidal effect (evaluation scale 0-5) [4]: 5 (mortality of 90% or above (nearly complete death)); C: ducksalad, herbicidal effect (evaluation scale 0-5) [5]: 5 (mortality of 90% or above (nearly complete death)); A: barnyardgrass, herbicidal effect (evaluation scale 0-5) [6]: 5 (mortality of 90% or above (nearly complete death)); N: common chickweed, herbicidal effect [7]: 4 (mortality of at least 70% and less than 90%); I: velvetleaf, herbicidal effect [8]: 5 (mortality of 90% or above (nearly complete death)); J: common ragweed, herbicidal effect [9]: 4 (mortality of at least 70% and less than 90%); H: Italian ryegrass, herbicidal effect [10]: 3 (mortality of at least 40% and less than 70%); A: barnyardgrass, herbicidal effect [11]: 5 (mortality of 90% or above (nearly complete death)); E: giant foxtail, herbicidal effect [12]: 4 (mortality of at least 70% and less than 90%); D: large crabgrass, herbicidal effect [13]: 5 (mortality of 90% or above (nearly complete death)); G: water foxtail, herbicidal effect [14]: 5 (mortality of 90% or above (nearly complete death)); M: posumbu knotweed, herbicidal effect [15]: 0 (mortality of less than 5% (almost ineffective)); L: common lambsquater, herbicidal effect [16]: 4 (mortality of at least 70% and less than 90%); F: wild oat, herbicidal effect [17]: 0 (mortality of less than 5% (almost ineffective)); O: beadstraw, herbicidal effect [18]: 4 (mortality of at least 70% and less than 90%); K: redroot pigweed, herbicidal effect [19]: 2 (mortality of at least 20% and less than 40%); N: common chickweed, herbicidal effect (evaluation scale 0-5) [20]: 5 (mortality of 90% or above (nearly complete death)); I: velvetleaf, herbicidal effect (evaluation scale 0-5) [21]: 5 (mortality of 90% or above (nearly complete death)); J: common ragweed, herbicidal effect (evaluation scale 0-5) [22]: 4 (mortality of at least 70% and less than 90%); H: Italian ryegrass, herbicidal effect (evaluation scale 0-5) [23]: 5 (mortality of 90% or above (nearly complete death)); A: barnyardgrass, herbicidal effect (evaluation scale 0-5) [24]: 5 (mortality of 90% or above (nearly complete death)); E: giant foxtail, herbicidal effect (evaluation scale 0-5) [25]: 5 (mortality of 90% or above (nearly complete death)); D: large crabgrass, herbicidal effect (evaluation scale 0-5) [26]: 5 (mortality of 90% or above (nearly complete death)); G: water foxtail, herbicidal effect (evaluation scale 0-5) [27]: 5 (mortality of 90% or above (nearly complete death)); M: posumbu knotweed, herbicidal effect (evaluation scale 0-5) [28]: 3 (mortality of at least 40% and less than 70%); L: common lambsquater, herbicidal effect (evaluation scale 0-5) [29]: 5 (mortality of 90% or above (nearly complete death)); F: wild oat, herbicidal effect (evaluation scale 0-5) [30]: 0 (mortality of less than 5% (almost ineffective)); K: redroot pigweed, herbicidal effect (evaluation scale 0-5) [31]: 3 (mortality of at least 40% and less than 70%); a: transplanted rice, effect on crop (evaluation scale 0-5) [32]: 0 (mortality of less than 5% (almost ineffective))

Q: With `CCOC(=O)N(c1ccccc1CN1CCOC(C)C1=O)S(=O)(=O)C(F)(F)F` (stereo not shown) [Compound I-5, 2-methyl-4-[2-(N-ethoxycarbonyl-N-trifluoromethanesulfonyl)aminobenzyl]-1,4-oxazinan-3-one] as the compound, how does the “B: bulrush, herbicidal effect (evaluation scale 0-5)” value [1] read?
A: 5 (mortality of 90% or above (nearly complete death))

Q: And the “C: ducksalad, herbicidal effect (evaluation scale 0-5)” value [2]?
A: 5 (mortality of 90% or above (nearly complete death))

Q: And the “A: barnyardgrass, herbicidal effect (evaluation scale 0-5)” value [3]?
A: 5 (mortality of 90% or above (nearly complete death))

Q: And the “B: bulrush, herbicidal effect (evaluation scale 0-5)” value [4]?
A: 5 (mortality of 90% or above (nearly complete death))

Q: And the “C: ducksalad, herbicidal effect (evaluation scale 0-5)” value [5]?
A: 5 (mortality of 90% or above (nearly complete death))

Q: What about the “A: barnyardgrass, herbicidal effect (evaluation scale 0-5)” value [6] of the same compound?
A: 5 (mortality of 90% or above (nearly complete death))

Q: What about the “N: common chickweed, herbicidal effect” value [7] of the same compound?
A: 4 (mortality of at least 70% and less than 90%)

Q: What about the “I: velvetleaf, herbicidal effect” value [8] of the same compound?
A: 4 (mortality of at least 70% and less than 90%)

Q: And the “J: common ragweed, herbicidal effect” value [9]?
A: 4 (mortality of at least 70% and less than 90%)

Q: What about the “H: Italian ryegrass, herbicidal effect” value [10] of the same compound?
A: 4 (mortality of at least 70% and less than 90%)

Q: What about the “A: barnyardgrass, herbicidal effect” value [11] of the same compound?
A: 5 (mortality of 90% or above (nearly complete death))

Q: And the “E: giant foxtail, herbicidal effect” value [12]?
A: 4 (mortality of at least 70% and less than 90%)

Q: What about the “D: large crabgrass, herbicidal effect” value [13] of the same compound?
A: 5 (mortality of 90% or above (nearly complete death))

Q: What about the “G: water foxtail, herbicidal effect” value [14] of the same compound?
A: 5 (mortality of 90% or above (nearly complete death))

Q: What about the “M: posumbu knotweed, herbicidal effect” value [15] of the same compound?
A: 4 (mortality of at least 70% and less than 90%)

Q: What about the “L: common lambsquater, herbicidal effect” value [16] of the same compound?
A: 3 (mortality of at least 40% and less than 70%)

Q: And the “F: wild oat, herbicidal effect” value [17]?
A: 2 (mortality of at least 20% and less than 40%)

Q: And the “O: beadstraw, herbicidal effect” value [18]?
A: 3 (mortality of at least 40% and less than 70%)

Q: And the “K: redroot pigweed, herbicidal effect” value [19]?
A: 3 (mortality of at least 40% and less than 70%)

Q: And the “N: common chickweed, herbicidal effect (evaluation scale 0-5)” value [20]?
A: 5 (mortality of 90% or above (nearly complete death))

Q: And the “I: velvetleaf, herbicidal effect (evaluation scale 0-5)” value [21]?
A: 4 (mortality of at least 70% and less than 90%)

Q: What about the “J: common ragweed, herbicidal effect (evaluation scale 0-5)” value [22] of the same compound?
A: 4 (mortality of at least 70% and less than 90%)

Q: And the “H: Italian ryegrass, herbicidal effect (evaluation scale 0-5)” value [23]?
A: 1 (mortality of at least 5% and less than 20%)

Q: What about the “A: barnyardgrass, herbicidal effect (evaluation scale 0-5)” value [24] of the same compound?
A: 5 (mortality of 90% or above (nearly complete death))

Q: What about the “E: giant foxtail, herbicidal effect (evaluation scale 0-5)” value [25] of the same compound?
A: 5 (mortality of 90% or above (nearly complete death))

Q: And the “D: large crabgrass, herbicidal effect (evaluation scale 0-5)” value [26]?
A: 5 (mortality of 90% or above (nearly complete death))

Q: And the “G: water foxtail, herbicidal effect (evaluation scale 0-5)” value [27]?
A: 5 (mortality of 90% or above (nearly complete death))

Q: What about the “M: posumbu knotweed, herbicidal effect (evaluation scale 0-5)” value [28] of the same compound?
A: 4 (mortality of at least 70% and less than 90%)

Q: And the “L: common lambsquater, herbicidal effect (evaluation scale 0-5)” value [29]?
A: 5 (mortality of 90% or above (nearly complete death))

Q: And the “F: wild oat, herbicidal effect (evaluation scale 0-5)” value [30]?
A: 3 (mortality of at least 40% and less than 70%)

Q: And the “K: redroot pigweed, herbicidal effect (evaluation scale 0-5)” value [31]?
A: 4 (mortality of at least 70% and less than 90%)

Q: And the “a: transplanted rice, effect on crop (evaluation scale 0-5)” value [32]?
A: 0 (mortality of less than 5% (almost ineffective))
